Source: patent US20260306644A1, “ANTIBODY RECRUITING MOLECULES FOR THE TREATMENT OF CORONAVIRUS DISEASE-19” (priority 2023, published 2026)
Values joined by “and” are separate entries in the source; they are usually repeats but may differ in a detail not shown here. Identical values can stand only once. Like-named read-outs stand apart in the source and are kept apart here. Positions of bridges follow the written chain, without caps; N, C: chain ends. Non-standard residues stand in square brackets, D forms with d. Residues, ends and D or L forms follow the SMILES beside them. No end group written: not given here. *: point of attachment. X1 = O=C(CCCC[C@@H]1SC[C@@H]2NC(=O)N[C@@H]21)NCCOCCOCCOCCOCCN*; Biotin = O=C1N[C@H]2[C@H](CS[C@H]2CCCCC(=O)*)N1; PEG4 = NCCOCCOCCOCCOCCC(=O)O; hCys = N[C@@H](CCS)C(=O)O; Nle = CCCC[C@H](N)C(=O)O; Aib = CC(C)(N)C(=O)O

Tests used:
[1] = molecular target: SARS-CoV-2 Spike protein (Severe acute respiratory syndrome coronavirus 2, UniProt P0DTC2); experiment: Ternary binding of SARS-CoV-2 Spike protein (293T cells expressing Spike-GFP, IgG-AF647, flow cytometry); type: cell-based; conditions: IgG-AF647 10 μg/ml, repeat values/batches listed separately, read-out: SARS-CoV-2 Ternary binding EC50
[2] = molecular target: T1, SARS-CoV-2 Spike Glycoprotein RBD protein (Severe acute respiratory syndrome coronavirus 2, UniProt P0DTC2); experiment: Binding of biotinylated ligands to SARS-CoV-2 Spike Glycoprotein RBD protein by ELISA; conditions: ELISA; biotinylated ligands; Spike RBD; read-out: ELISA SARS-CoV-2 Spike RBD Protein Binding EC50
T1 construct: SARS-CoV-2 (COVID-19) S Protein RBD, His Tag; purchased Acro Biosystems SPD-C52H3
Description: Materials. The binding affinity of biotinylated ligands to SARS-CoV-2 Spike Glycoprotein RBD protein was determined by ELISA. The binding assay was performed using the following steps: (1) assay plates (PE B&W Isoplate 96-well Flat Bottom, High Bindi-g - Perkin Elmer 6005580) were coated with 100 ul Anti-6× His tag antibody (Anti-6× His tag Antibody; Abcam ab15149, Mouse Monoclonal; Cambridge, UK) at 5 μg/ml in PBS, incubate 1 hour at 37° C. without shaking. The plates were washed (each wash step of this assay includes four 1-minute washes with 200 ul phosphate-buffered saline-0.05% (w/v) Tween® 20 detergent (PBST)). (2) Plates were blocked with 200 ul PBST-5% BSA (PBSTB; American Bio AB01088-00100; Canton, MA), for an hour at room temperature on a plate shaker (400 rpm). The plates were washed. […] The plates were washed. (4) Ligands were added, 100 ul at a concentration range of 0.1 mM to 100 nM in PBSTB, and incubated for 1 hour at room temperature on a plate shaker (200 RPM). The plates were washed. (5) NeutrAvidin™-HRP (Invitrogen 31030; Waltham, MA) is added, 100 ul at a dilution of 1:20,000 in PBSTB, and incubated for 1 hour at room temperature on a plate shaker (200 RPM). The plates were washed. (6) SuperSignal ELISA Pico Chemiluminescent Substrate (Thermo Scientific 37069; Waltham, MA) was added and incubated for 5 minutes at room temperature on a plate shaker (200 RPM).

[3] = system: Spike RBD coated magnetic beads / RAW 264.7 macrophages; experiment: Antibody-dependent cellular phagocytosis (ADCP), RAW 264.7 macrophages and Spike RBD coated magnetic beads, flow cytometry; type: cell-based; conditions: 37° C., 2 hours, read-out: SARS-COV-2 ADCP EC50
Description: The ability of the compounds to mediate antibody-dependent cellular phagocytosis (ADCP) was assessed using RAW 264.7 macrophages and Spike RBD coated magnetic beads (https://www.acrobiosystems.com/P3194-SARS-CoV-2-Spike-RBD-coupled-Magnetic-Beads.html). Spike RBD coated magnetic beads (3 ul per well) were added to each well of a round bottom 96-well plates. RAW264.7 cells (50,000 cells per well) were added to the beads. Next, the compounds were administered to predetermined final concentrations. The cell-bead mixtures were incubated at 37° C. for 2 hours. The mixtures were then analyzed by flow cytometry.

[4] = molecular target: T2, SARS-CoV-2 Spike A (wild-type) (Severe acute respiratory syndrome coronavirus 2, UniProt P0DTC2); experiment: MSD ACE2 competition assay (inhibition of Spike binding with ACE2, ECL), A (wild-type); conditions: IC50 Wild Type, Wild Type Spike
T2 construct: purchased Meso Scale Diagnostics, LLC V-PLEX SARS-CoV-2 Panel 13 (ACE2) Kit / Panel 23 (ACE2) Kit

[5] = 293T cells expressing Spike-GFP

Molecule | EC50 [1, 5] | EC50 [2] [nM] | EC50 [3] | IC50 [4] [nM] | EC50 ([1]; […]) [nM]
CC[C@H](C)[C@@H]1NC(=O)[C@H](Cc2c[nH]c3ccccc23)NC(=O)[C@H](CCC(=O)O)NC(=O)CSCC[C@@H](C(=O)NCCOCCOCCOCCOCCNC(=O)CCCC[C@@H]2SC[C@@H]3NC(=O)N[C@@H]32)NC(=O)[C@H](CCCCN)NC(=O)[C@H](CCCCN)NC(=O)[C@H](CCSC)NC(=O)[C@H](Cc2ccccc2)NC(=O)[C@H](CCC(=O)O)NC(=O)[C@H](Cc2ccc(O)cc2)NC(=O)[C@H]([C@@H](C)CC)NC(=O)[C@H](CC(C)C)NC(=O)[C@H](CC(=O)O)NC(=O)[C@H](CO)NC(=O)[C@H](C(C)C)NC(=O)[C@H](CCCNC(=N)N)NC(=O)[C@H](CCSC)NC(=O)[C@H](CO)NC(=O)[C@H](C)NC(=O)[C@H](CCC(=O)O)NC(=O)[C@H](C)NC(=O)[C@H](Cc2c[nH]cn2)NC(=O)CNC(=O)[C@H](CC(C)C)NC(=O)[C@H](CCC(=O)O)NC(=O)[C@H](CC(=O)O)NC(=O)[C@H](CC(C)C)NC(=O)[C@H](CC(C)C)NC(=O)[C@H](CCCNC(=N)N)NC(=O)[C@H](CCSC)NC(=O)[C@H]([C@@H](C)CC)NC(=O)[C@H](CCC(=O)O)NC(=O)[C@H](Cc2ccc(O)cc2)NC(=O)[C@H]([C@@H](C)CC)NC(=O)[C@H](CCCCN)NC(=O)[C@H](CCC(N)=O)NC(=O)[C@H](CC(C)C)NC1=O [Compound 251] ({CH2CO}-EWILQKIYEIMRLLDELGHAEASMRVSDLIYEFMKK[hCys]-X1; thioether N-37) | 0.08 nM | 0.92 |  |  | 
CC[C@H](C)[C@H](NC(=O)[C@H](CC(C)C)NC(=O)[C@H](CC(=O)O)NC(=O)[C@H](CO)NC(=O)[C@@H](NC(=O)[C@H](CCCNC(=N)N)NC(=O)[C@H](CCSC)NC(=O)[C@H](CO)NC(=O)[C@H](C)NC(=O)[C@H](CCC(=O)O)NC(=O)[C@H](C)NC(=O)[C@H](Cc1c[nH]cn1)NC(=O)CNC(=O)[C@H](CC(C)C)NC(=O)[C@H](CCC(=O)O)NC(=O)[C@H](CC(=O)O)NC(=O)[C@H](CC(C)C)NC(=O)[C@H](CC(C)C)NC(=O)[C@H](CCCNC(=N)N)NC(=O)[C@H](CCSC)NC(=O)[C@@H](NC(=O)[C@H](CCC(=O)O)NC(=O)[C@H](Cc1ccc(O)cc1)NC(=O)[C@@H](NC(=O)[C@H](CCCCN)NC(=O)[C@H](CCC(N)=O)NC(=O)[C@H](CC(C)C)NC(=O)[C@@H](NC(=O)[C@H](Cc1c[nH]c2ccccc12)NC(=O)[C@H](CCC(=O)O)NC(=O)[C@H](CCCCN)NC(=O)[C@H](CC(=O)O)NC(=O)[C@H](CO)NC(=O)C(C)(C)NC(=O)CCOCCOCCOCCOCCNC(=O)CCCC[C@@H]1SC[C@@H]2NC(=O)N[C@@H]21)[C@@H](C)CC)[C@@H](C)CC)[C@@H](C)CC)C(C)C)C(=O)N[C@@H](Cc1ccc(O)cc1)C(=O)N[C@@H](CCC(=O)O)C(=O)N[C@@H](Cc1ccccc1)C(=O)N[C@@H](CCSC)C(=O)N[C@@H](CCCCN)C(=O)N[C@@H](CCCCN)C(=O)N[C@H](C)C(=O)O [Compound 214] |  | 0.78 |  |  | 
CCCC[C@H](NC(=O)[C@H](CCC(=O)O)NC(=O)[C@H](CC(=O)O)NC(=O)[C@H](CC(C)C)NC(=O)[C@H](CC(C)C)NC(=O)[C@H](CCCNC(=N)N)NC(=O)[C@H](CCSC)NC(=O)[C@@H](NC(=O)[C@H](CCC(=O)O)NC(=O)[C@H](Cc1ccc(O)cc1)NC(=O)[C@@H](NC(=O)[C@H](CCCCN)NC(=O)[C@H](CCC(N)=O)NC(=O)[C@H](CC(C)C)NC(=O)[C@@H](NC(=O)[C@H](Cc1c[nH]c2ccccc12)NC(=O)[C@H](CCC(=O)O)NC(=O)[C@H](CCCCN)NC(=O)[C@H](CC(=O)O)NC(=O)CCOCCOCCOCCOCCNC(=O)CCCC[C@@H]1SC[C@@H]2NC(=O)N[C@@H]21)[C@@H](C)CC)[C@@H](C)CC)[C@@H](C)CC)C(=O)N[C@H](Cc1c[nH]cn1)C(=O)N[C@@H](Cc1c[nH]cn1)C(=O)N[C@@H](C)C(=O)N[C@@H](CCC(=O)O)C(=O)N[C@@H](C)C(=O)N[C@@H](CO)C(=O)N[C@@H](CCSC)C(=O)N[C@@H](CCCNC(=N)N)C(=O)N[C@H](C(=O)N[C@@H](CO)C(=O)N[C@@H](CC(=O)O)C(=O)N[C@@H](CC(C)C)C(=O)N[C@H](C(=O)N[C@@H](Cc1ccc(O)cc1)C(=O)N[C@@H](CCC(=O)O)C(=O)N[C@@H](Cc1ccccc1)C(=O)N[C@@H](CCSC)C(=O)N[C@@H](CCCCN)C(=O)N[C@@H](CCCCN)C(=O)NCC(=O)O)[C@@H](C)CC)C(C)C [Compound 222] | 0.02 nM | 0.79 |  |  | 
CC[C@H](C)[C@H](NC(=O)[C@H](CC(C)C)NC(=O)[C@H](CC(=O)O)NC(=O)[C@H](CO)NC(=O)[C@@H]1CSSC[C@H](NC(=O)[C@@H](NC(=O)[C@H](CCC(=O)O)NC(=O)[C@H](Cc2ccc(O)cc2)NC(=O)[C@@H](NC(=O)[C@H](CCCCN)NC(=O)[C@H](CCC(N)=O)NC(=O)[C@H](CC(C)C)NC(=O)[C@@H](NC(=O)[C@H](Cc2c[nH]c3ccccc23)NC(=O)[C@H](CCC(=O)O)NC(=O)[C@H](CCCCN)NC(=O)[C@H](CC(=O)O)NC(=O)CCOCCOCCOCCOCCNC(=O)CCCC[C@@H]2SC[C@@H]3NC(=O)N[C@@H]32)[C@@H](C)CC)[C@@H](C)CC)[C@@H](C)CC)C(=O)N[C@@H](CCCNC(=N)N)C(=O)N[C@@H](CC(C)C)C(=O)N[C@@H](CC(C)C)C(=O)N[C@@H](CC(=O)O)C(=O)N[C@@H](CCC(=O)O)C(=O)N[C@@H](CC(C)C)C(=O)NCC(=O)N[C@@H](Cc2c[nH]cn2)C(=O)N[C@@H](C)C(=O)N[C@@H](CCC(=O)O)C(=O)N[C@@H](C)C(=O)N[C@@H](CO)C(=O)N[C@@H](CCSC)C(=O)N[C@@H](CCCNC(=N)N)C(=O)N1)C(=O)N[C@@H](Cc1ccc(O)cc1)C(=O)N[C@@H](CCC(=O)O)C(=O)N[C@@H](Cc1ccccc1)C(=O)N[C@@H](CCSC)C(=O)N[C@@H](CCCCN)C(=O)N[C@@H](CCCCN)C(=O)NCC(=O)O [Compound 181] ({Biotin-PEG4}-DKEWILQKIYEICRLLDELGHAEASMRCSDLIYEFMKKG-OH; disulfide 13-28) | 0.77 nM and < 0.3 nM |  | 2.1 nM and 3.1 nM | 2.51 | 
Ac-DKEWILQKIYEIMRLLDELGHAEASMRVSDLIYEFMKKGDERLLEEAERLLEEVERGQAPGQAPDCAWHLGELVWCT-NH2 (disulfide 66-76) [Compound 147] |  |  | 0.43 nM | 1.35 | 0.02
Ac-DKEWILQKIYEIMRLLDELGHAEASMRVSDLIYEFMKKGDERLLEEAERLLEEVERGGGGDCAWHLGELVWCT-NH2 (disulfide 62-72) [Compound 144] | 0.03 nM |  | 0.61 nM | 1.17 | 
DKEWILQKIYEIMRLLDELGHAEASMRVSDLIYEFMKKGDERLLEEAERLLEEVERGGGGDCAWHLGELVWCT-NH2 (disulfide 62-72) [Compound 171] | 0.01 nM |  | 0.41 nM | 1.25 | 
DKEWILQKIYEIMRLLDELGHAEASMRVSDLIYEFMKKGDERLLEEAERLLEEVERGGDCAWHLGELVWCT-NH2 (disulfide 60-70) [Compound 172] | 0.02 nM |  | 0.87 nM | 1.05 | 
DKEWILQKIYEIMRLLDELGHAEASMRVSDLIYEFMKKGDERLLEEAERLLEEVERGGGGGGGGDCAWHLGELVWCT-NH2 (disulfide 66-76) [Compound 169] | 0.01 nM |  | 0.53 nM | 1.22 | 
{Biotin-PEG4}-[Aib]SDKEWILQKIYEI[Nle]RLLDELGHAEAS[Nle]RVSDLIY[Aib]FMK[Aib]G [Compound 220] |  | 2.55 |  |  | 
DKEWILQKIYEIMRLLDELGHAEASMRVSDLIYEFMKKGDERLLEEAERLLEEVERGGGGGGDCAWHLGELVWCT-NH2 (disulfide 64-74) [Compound 170] | 0.02 nM |  | 0.95 nM | 1.52 | 
